Reference: patent publication US20240189263A1, “DERIVATIZED C60 MOLECULES AND METHODS AND MATERIALS FOR USING DERIVATIZED C60 MOLECULES TO REDUCE RADIATION INJURY” (Mayo Foundation for Medical Education and Research, priority 2021, published 2024)

Experiments:
[1] = Zeta-potential of C60-ser aggregates; assay type: physicochemical; conditions: 0.1 mg/mL and 10 mg/mL in deionized water
Experimental: Analysis was performed using a ZEN 3600 Malvern Zetasizer (Worcestershire, UK) equipped with a 633 nm laser. The electrophoretic mobilities (p) of the aggregates was measured by applying an electric field to the C60-ser solution and measuring the speed and direction of the aggregate's motion. Zeta-potentials were calculated using the solvent viscosity (n) and the water dielectric constant (e). To perform the measurements, C60-ser molecules were dissolved in deionized water, and the solution electrical conductivity was adjusted to 25-50 μS/cm by addition of small amounts of neutral 2-(N-morpholino)ethanesulfonic acid (MES) buffer. The zeta-potential of C60-ser aggregates was measured at a concentration of 0.1 mg/mL in deionized water (FIG. 5A) and 10 mg/mL in deionized water (FIG. 5B).

HUVEC cells = experiment: MTS cytotoxicity assay, HUVEC; assay type: cell-based; conditions: 1-1000 μM, 24, 48 or 72 hours
Experimental: Cytotoxicity of C60-ser was determined by an MTS (3-(4,5-dimethylthiazol-2-yl)-5-(3-carboxymethoxyphenyl)-2-(4-sulfophenyl)-2H-tetrazolim) colorimetric assay on four different cell lines, each representing a different cell type. Specifically, HepG2 (liver epithelium), HUVEC (endothelial cells), N2A (neuroblastoma cells representative of normal neurons), and NIH3T3 (fibroblasts) were analyzed. The cells were seed in a 96-well tissue culture polystyrene plate at different seeding concentrations based on the cell's doubling time. HUVEC cells were seeded at 10,000 cells/well (24 hour experiments), 8,000 cells/well (48 hour experiments), and 5,000 cells/well (72 hour experiments), and incubated for 24 hours in a humidified atmosphere with 5% C02 at 37° C. […] After incubation with MTS, the optical density (OD) of the resulting formazan solution was read at 490 nm using a microplate reader (Biotek Cytation 5 cell Imaging Multi-Mode reader, Winooski, VT). The cell viability was obtained by normalizing the absorbance of the sample with that of the control wells containing untreated cells. The cell viability was expressed as a percentage, assigning the viability of non-treated cells as 100%. […]

N2A cells [2] = experiment: Classic clonogenics survival assay of irradiated cells, N2A; assay type: cell-based
Experimental: (§1) A classic clonogenics assay was performed to further test the ability of C60-ser to protect against radiation damage. After irradiation, a fraction of the cells will undergo radiation-induced death, whereas other cells remain metabolically active and are able to undergo a few cycles of mitosis before meeting their endpoint. Since many cells remain metabolically activity, classic toxicity measurements such as an MTT measurement are not able to catch the full effects of radiation damage. In contrast, a classic clonogenics assay, which plates a known number of cells and tracks development of colonies, is able to track the number of cells that maintain their clonogenicity. With increasing radiation doses, the fraction of cells that maintain clonogenicity decrease. Therefore, a successful radioprotectant is able to increase the number of surviving colonies compared to the control at the same radiation doses.
(§2) N2A, NIH3T3, and HepG2 cells were plated in 35 mm dishes and treated with 100 μM C60-ser for 2 hours prior to washing with PBS and irradiation at 0, 2, 4, and 6 Gy with a 230 MeV proton beam. Following radiation, a known number of cells were re-plated in six well plates and allowed to grow in culture for 8-14 days to allow for colony formation. To account for cell death with higher radiation doses, a larger number of cells were plated with increasing doses received. […]

HepG2 cells [3] = experiment: Classic clonogenics survival assay of irradiated cells, HepG2; assay type: cell-based
Experimental: as §1, §2

N2A cells [4] = experiment: Seahorse mitochondrial respiration (oxygen consumption rate), N2A; assay type: cell-based; conditions: pretreated 2 hours before 1 Gy 230 MeV proton
Experimental: (§3) The oxygen consumption rates were assessed in N2A, HUVEC, NIH3T3, and HepG2 cell lines with a Seahorse XFe96 (Agilent Technologies, Santa Clara, CA, USA). Cells were treated with 0 and 1 Gy of 230 MeV proton irradiation. The control plates were run at about the same time post plating. Each cell line was optimized prior to these experiments, and data was presented normalized to cell number plated. The standard mitochondrial stress test was performed using serial injections of oligomycin (1.5 μM), carbonyl cyanide p-(trifluoromethoxy)phenylhydrazone (FCCP, 1 μM), and rotenone/antimycin A mixture (0.5 μM). After injection of oligomycin, which inhibits ATP synthase (complex V), there was a drop in electron flow through the electron transport chain (ETC) and a resultant drop in oxygen consumption rate (OCR) of the cells. Injection of FCCP collapsed the proton gradient and allowed for uninhibited electron flow through the ETC supercomplexes. […] The reserve respiratory capacity was calculated by subtracting the basal respiratory capacity from the maximal respiratory capacity.

HepG2 cells [5] = experiment: Seahorse mitochondrial respiration (oxygen consumption rate), HepG2; assay type: cell-based; conditions: HepG2, pretreated 2 hours before 1 Gy 230 MeV proton
Experimental: as §3

C57B16 mice = experiment: Whole body radiation protection, survival; assay type: in vivo

## O=C(NC(CO)CO)C1(C(=O)NC(CO)CO)C23c4c5c6c7c8c4-c4c2c2c9c%10c4C4%11c%12c-%10c%10c%13c%14c%12-c%12c(c-7c7c%15c%12C%14%12C(C(=O)NC(CO)CO)(C(=O)NC(CO)CO)C%12%14c%12c%16c%17c%18c(c%12-%15)C7%12C(C(=O)NC(CO)CO)(C(=O)NC(CO)CO)C6%12c6c-5c5c7c(c6-%18)C%176C(C(=O)NC(CO)CO)(C(=O)NC(CO)CO)C6%12c6c-7c(c-2c2c6-c6c%12c-%16c%14c-%13c6C%106C(C(=O)NC(CO)CO)(C(=O)NC(CO)CO)C926)C513)C84C%11(C(=O)NC(CO)CO)C(=O)NC(CO)CO (centres unmarked) [C60-ser, C60-serinol]
[1]
  zeta-potentials of aggregates: close to zero
HUVEC cells
  percent viability: did not result in a significant decrease in viability
N2A cells [2]; 100 μM 2 hours before irradiation
  fraction of surviving cells: increased the fraction of surviving cells
N2A cells [2]; 100 μM 2 hours, 0-6 Gy 230 MeV proton, one set of clonogenics
  dose enhancement factor (DEF) at 20% surviving fraction: 0.91
HepG2 cells [3]; HepG2, 100 μM 2 hours before irradiation
  fraction of surviving cells: increased the fraction of surviving cells
HepG2 cells [3]; HepG2, 100 μM 2 hours, 0-6 Gy 230 MeV proton
  dose enhancement factor (DEF) at 20% surviving fraction: 0.88±0.01
N2A cells [4]
  radiation-induced increase in respiratory capacity: dampened and, in some cases, reduced to normal or slightly below normal levels
HepG2 cells [5]
  radiation-induced increase in respiratory capacity: dampened and, in some cases, reduced to normal or slightly below normal levels
C57B16 mice; given systemically 12 hours after radiation
  protection from whole body x-ray radiation-induced death: protected mice from whole body x-ray radiation-induced death
C57B16 mice; per os 700 mg/kg 12 hours before 9.5 Gy whole-body x-ray, then 70 mg/kg daily for eight days
  survival over 45 day study: 100%
C57B16 mice; per os 700 mg/kg once 12 hours before 9.5 Gy whole-body x-ray
  survival over 45 day study: 100%
